Data as given in PubChem BioAssay (NCI).
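Dose response: 5 concentrations. Exposure: 48 h. Format: 96-well plates. Endpoint: linear interpolation; highest concentration if not reached. TGI is the concentration that stops growth completely.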

Tests used:
Assay in all cases: NCI anticancer screen, dose series, 48 h
[1] = test system: SR leukemia
[2] = test system: HT29 colon
[3] = test system: SK-MEL-28 melanoma
[4] = test system: HCC-2998 colon
[5] = test system: MDA-MB-435
[6] = test system: NCI-H23 lung
[7] = test system: CAKI-1 renal
[8] = test system: M14 melanoma
[9] = test system: U251 CNS
[10] = test system: K-562 leukemia
[11] = test system: SNB-75 CNS
[12] = test system: SK-OV-3 ovarian
[13] = test system: OVCAR-5 ovarian
[14] = test system: ACHN renal
[15] = test system: SW-620 colon
[16] = test system: TK-10 renal
[17] = test system: RPMI-8226 leukemia
[18] = test system: SF-268 CNS
[19] = test system: HS 578T breast

Compound | TGI [1] [µM] | TGI [2] [µM] | TGI [3] [µM] | TGI [4] [µM] | TGI [5] [µM] | TGI [6] [µM] | TGI [7] [µM] | TGI [8] [µM] | TGI [9] [µM] | TGI [10] [µM] | TGI [11] [µM] | TGI [12] [µM] | TGI [13] [µM] | TGI [14] [µM] | TGI [15] [µM] | TGI [16] [µM] | TGI [17] [µM] | TGI [18] [µM] | TGI [19] [µM]
C=CC[C@H]1O[Si](C(C)(C)C)(C(C)(C)C)[C@H](C)[C@H]1C | > 100 | > 100 | > 100 | > 100 | > 100 | > 100 | > 100 | > 100 | > 100 | > 100 | > 100 | > 100 | > 100 | > 100 | > 100 | > 100 |  |  | 
C=CCC1(O)CC(n2cc(C)c(=O)[nH]c2=O)OC1CO[Si](C)(C)C(C)(C)C (centres undefined) | > 100 | > 100 | > 100 | > 100 | > 100 | > 100 | > 100 | > 100 | > 100 | > 100 | > 100 |  | > 100 | > 100 | > 100 |  | 97.7 |  | 
Nn1c(CCCCCCCCc2nnc(COc3ccc(Cl)cc3Cl)n2N)nnc1COc1ccc(Cl)cc1Cl |  | > 100 | > 100 | > 100 | > 100 | > 100 | > 100 | > 100 | > 100 | > 100 |  |  | > 100 | > 100 | > 100 | > 100 | > 100 | > 100 | 
COc1ccc(/C=c2/sc3n(c2=O)C(c2ccccc2)C2(O)CCCCC2N=3)cc1 (centres undefined) | > 12.5 | > 12.5 | > 12.5 | > 12.5 | > 12.5 | > 12.5 | > 12.5 | > 12.5 | > 12.5 | > 12.5 | > 12.5 |  | > 12.5 | > 12.5 | > 12.5 | > 12.5 | > 12.5 | > 12.5 | 
COc1c2c(cc3c1C(=O)c1c(O)cccc1C3=O)CC(O)CC2 (centres undefined) |  | > 100 | > 100 | > 100 | > 100 | 47 | > 100 | > 100 | > 100 | > 100 | > 100 | 59 | > 100 | > 100 | > 100 | > 100 |  |  | 74.1
Cc1ccc(-c2n[nH]c(Cc3nc(-c4ccc(C)cc4)n[nH]3)n2)cc1 |  | > 100 | > 100 | > 100 | > 100 | > 100 |  | > 100 | 33.8 | > 100 | > 100 | > 100 | > 100 | > 100 | > 100 | > 100 | > 100 | > 100 | 
NC1c2c(Br)sc(N3CCCC3)c2C(=O)C1O (centres undefined) |  | > 50 |  | > 50 | > 50 | > 50 | > 50 | > 50 | > 50 | > 50 | > 50 | > 50 | > 50 | > 50 | > 50 | > 50 |  | > 50 | > 50
O=[N+]([O-])c1cccc2nc3ccccc3c(NCCCCNc3c4ccccc4nc4cccc([N+](=O)[O-])c34)c12 |  | 0.0366 | 0.522 | 0.164 |  | 0.159 | 0.168 | 0.199 | 0.187 |  | 1.83 | 1.69 | 1.64 | 0.0913 | 0.174 | 0.0304 |  | 0.189 | 0.935
Cc1ccc2c(c1)[nH]c(=S)n2C=C(C(N)=O)C(N)=O |  | > 100 | > 100 | > 100 | > 100 | > 100 | > 100 | > 100 | > 100 |  | > 100 | > 100 | > 100 | > 100 | > 100 | > 100 |  | > 100 | 
N#Cc1cccc2c1Sc1ccccc1N2 | > 100 | > 100 |  | > 100 | > 100 | > 100 | > 100 | > 100 | > 100 | > 100 | 3.15 | > 100 | 72.8 | > 100 | > 100 | 75.8 | > 100 | > 100 | 
CC1OC(OC2C(O[C@H]3CC[C@@H]4C(=CC[C@@H]5[C@@]4(C)C(=O)C[C@]4(C)[C@@H]([C@H](C)CC[C@@H](O)C(C)(C)O)CC[C@@]54C)C3(C)C)OC(CO)C(O)C2O)C(O)C(O)C1O (some centres undefined) |  | > 100 | > 100 | > 100 | > 100 | > 100 | > 100 | > 100 | > 100 | > 100 | > 100 | > 100 | > 100 | > 100 | > 100 | > 100 |  | > 100 | > 100
COc1ccc2c(c1)CC[C@@H]1[C@@H]2CC[C@]2(C)C(=O)/C(=C/c3ccc(N(C)C)cc3)C[C@@H]12 |  |  |  | > 100 | > 100 | > 100 | 71.7 | > 100 | > 100 |  | 52.3 | > 100 | > 100 | > 100 | > 100 | 96.9 | > 100 | 89.9 | 
